Results: PubChem BioAssay AID256 (DTP/NCI, 2004)
Where “and” joins values, the source holds several entries; their conditions need not be identical. Identical values can stand only once. Inconclusive results and toxic doses are left out.

System: CD2F1 mice, L1210 leukemia ip, survival T/C
Assay: NCI In Vivo Anticancer Drug Screen. Data for tumor model L1210 Leukemia (intraperitoneal) in CD2F1 (CDF1) mice
Details: higher = longer survival
Method in brief: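 Activity against a transplanted murine tumor was judged by comparing the compound group with a vehicle group. The outcome in the treated animals was divided by that in the controls.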

[1] = endpoint: mean survival time, dose: 100.0 mg/kg/injection, schedule: Q01DX001 (ip), vehicle: saline with Tween-80
[2] = endpoint: mean survival time, dose: 200.0 mg/kg/injection, schedule: Q01DX001 (ip), vehicle: saline with Tween-80
[3] = endpoint: mean survival time, dose: 400.0 mg/kg/injection, schedule: Q01DX001 (ip), vehicle: saline with Tween-80
[4] = endpoint: mean survival time, dose: 100.0 mg/kg/injection, schedule: Q04DX003 (ip), vehicle: saline with Tween-80
[5] = endpoint: mean survival time, dose: 200.0 mg/kg/injection, schedule: Q04DX003 (ip), vehicle: saline with Tween-80
[6] = endpoint: mean survival time, dose: 400.0 mg/kg/injection, schedule: Q04DX003 (ip), vehicle: saline with Tween-80

CC[C@]1(O)C[C@H]2CN(CCc3c([nH]c4ccccc34)[C@@](C(=O)OC)(c3cc4c(cc3OC)N(C)[C@H]3[C@@](O)(C(=O)OC)[C@H](OC(C)=O)[C@]5(CC)C=CCN6CC[C@]43[C@@H]65)C2)C1
T/C (endpoint: mean survival time, dose: 0.03 mg/kg/injection, schedule: Q01DX009 (ip), vehicle: water): 92 % of control | T/C (endpoint: mean survival time, dose: 0.06 mg/kg/injection, schedule: Q01DX009 (ip), vehicle: water): 97 % of control | T/C (endpoint: mean survival time, dose: 0.13 mg/kg/injection, schedule: Q01DX009 (ip), vehicle: water): 95 % of control | T/C (endpoint: mean survival time, dose: 0.25 mg/kg/injection, schedule: Q01DX007 (ip), vehicle: water): 120 % of control | T/C (endpoint: mean survival time, dose: 0.5 mg/kg/injection, schedule: Q04DX003 (ip), vehicle: water): 120 % of control | T/C (endpoint: mean survival time, dose: 1.0 mg/kg/injection, schedule: Q01DX007 (ip), vehicle: water): 91 % of control | T/C (endpoint: mean survival time, dose: 1.0 mg/kg/injection, schedule: Q01DX009 (ip), vehicle: saline): 90 % of control and 91 % of control | T/C (endpoint: mean survival time, dose: 1.0 mg/kg/injection, schedule: Q01DX009 (ip), vehicle: water): 86 % of control | T/C (endpoint: mean survival time, dose: 1.0 mg/kg/injection, schedule: Q04DX003 (ip), vehicle: water): 120 % of control | T/C (endpoint: median survival time, dose: 0.83 mg/kg/injection, schedule: Q01DX009 (ip), vehicle: saline): 110 % of control | T/C (endpoint: median survival time, dose: 1000.0 micrograms/kg/injection, schedule: Q01DX009 (ip), vehicle: saline): 98 % of control

OC(c1ccccc1)(c1ccc2ccccc2n1)c1cccs1 (stereo unspecified)
T/C (endpoint: mean survival time, dose: 100.0 mg/kg/injection, schedule: Q04DX003 (ip), vehicle: saline): 102 % of control | T/C (endpoint: mean survival time, dose: 200.0 mg/kg/injection, schedule: Q04DX003 (ip), vehicle: saline): 90 % of control | T/C (endpoint: mean survival time, dose: 400.0 mg/kg/injection, schedule: Q04DX003 (ip), vehicle: saline): 90 % of control

Cc1cc(NC(=O)Nc2ccccc2C)no1
T/C [1]: 106 % of control | T/C [2]: 100 % of control | T/C [3]: 103 % of control

O=C(O)C(O)(Cl)c1cccs1 (stereo unspecified)
T/C [4]: 98 % of control | T/C [5]: 95 % of control | T/C [6]: 95 % of control

Cc1ccc2c(/C=C/c3ccc(N(C)C)cc3)ccnc2c1
T/C (endpoint: mean survival time, dose: 100.0 mg/kg/injection, schedule: Q04DX003 (ip), vehicle: Klucel (hydroxypropylcellulose) (HPC)): 93 % of control | T/C (endpoint: mean survival time, dose: 200.0 mg/kg/injection, schedule: Q04DX003 (ip), vehicle: Klucel (hydroxypropylcellulose) (HPC)): 104 % of control | T/C (endpoint: mean survival time, dose: 400.0 mg/kg/injection, schedule: Q04DX003 (ip), vehicle: Klucel (hydroxypropylcellulose) (HPC)): 116 % of control

C=CCC(O)CCCC (stereo unspecified)
T/C (endpoint: mean survival time, dose: 50.0 mg/kg/injection, schedule: Q01DX009 (ip), vehicle: saline with Tween-80): 103 % of control | T/C (endpoint: mean survival time, dose: 100.0 mg/kg/injection, schedule: Q01DX009 (ip), vehicle: saline with Tween-80): 103 % of control | T/C (endpoint: mean survival time, dose: 200.0 mg/kg/injection, schedule: Q01DX009 (ip), vehicle: saline with Tween-80): 103 % of control

OC1=C2CCCCCC2=[N+]2CCCCC2C1 (stereo unspecified)
T/C [4]: 95 % of control | T/C [5]: 95 % of control

C[NH-].C[NH-].[Cl][Pt+2][Cl]
T/C (endpoint: mean survival time, dose: 2.5 mg/kg/injection, schedule: Q04DX003 (ip), vehicle: water): 91 % of control | T/C (endpoint: mean survival time, dose: 5.0 mg/kg/injection, schedule: Q04DX003 (ip), vehicle: water): 120 % of control | T/C (endpoint: mean survival time, dose: 10.0 mg/kg/injection, schedule: Q04DX003 (ip), vehicle: water): 92 % of control

NC(=O)C1(C(N)=O)CC1
T/C (endpoint: mean survival time, dose: 100.0 mg/kg/injection, schedule: Q04DX002 (ip), vehicle: saline): 108 % of control | T/C (endpoint: mean survival time, dose: 200.0 mg/kg/injection, schedule: Q04DX002 (ip), vehicle: saline): 104 % of control | T/C (endpoint: mean survival time, dose: 400.0 mg/kg/injection, schedule: Q04DX002 (ip), vehicle: saline): 100 % of control

CCCCCCCC/C=C\CCCCCCCC(=O)NCCCN(C)CCCNC(=O)CCCCCCC/C=C/CCCCCCCC
T/C (endpoint: mean survival time, dose: 75.0 mg/kg/injection, schedule: Q01DX001 (ip), vehicle: other): 100 % of control | T/C (endpoint: mean survival time, dose: 150.0 mg/kg/injection, schedule: Q01DX001 (ip), vehicle: other): 104 % of control | T/C (endpoint: mean survival time, dose: 300.0 mg/kg/injection, schedule: Q01DX001 (ip), vehicle: other): 100 % of control

Cc1cc(N=Nc2ccc(S(=O)(=O)[O-])cc2)cc(C(=O)[O-])c1[O-].NC1CCCCC1N.[Na+].[Pt+4]
T/C (endpoint: median survival time, dose: 3.12 mg/kg/injection, schedule: Q04DX003 (ip), vehicle: saline with Tween-80): 180 % of control and 287 % of control | T/C (endpoint: median survival time, dose: 6.25 mg/kg/injection, schedule: Q04DX003 (ip), vehicle: saline with Tween-80): 265 % of control and 344 % of control | T/C (endpoint: median survival time, dose: 12.5 mg/kg/injection, schedule: Q04DX003 (ip), vehicle: saline with Tween-80): 244 % of control and 310 % of control | T/C (endpoint: median survival time, dose: 25.0 mg/kg/injection, schedule: Q04DX003 (ip), vehicle: saline with Tween-80): 122 % of control

[Cl][Pt][Cl].[NH-]C(CCC(N)=O)C(=O)O (stereo unspecified)
T/C (endpoint: median survival time, dose: 12.5 mg/kg/injection, schedule: Q04DX003 (ip), vehicle: water): 100 % of control | T/C (endpoint: median survival time, dose: 25.0 mg/kg/injection, schedule: Q04DX003 (ip), vehicle: water): 101 % of control | T/C (endpoint: median survival time, dose: 50.0 mg/kg/injection, schedule: Q04DX003 (ip), vehicle: water): 108 % of control | T/C (endpoint: median survival time, dose: 100.0 mg/kg/injection, schedule: Q04DX003 (ip), vehicle: water): 107 % of control | T/C (endpoint: median survival time, dose: 200.0 mg/kg/injection, schedule: Q04DX003 (ip), vehicle: water): 111 % of control

ClCCn1c(CCl)nc2ccc(Cl)cc21
T/C (endpoint: mean survival time, dose: 2.5 mg/kg/injection, schedule: Q01DX009 (ip), vehicle: Klucel (hydroxypropylcellulose) (HPC)): 109 % of control | T/C (endpoint: mean survival time, dose: 5.0 mg/kg/injection, schedule: Q01DX009 (ip), vehicle: Klucel (hydroxypropylcellulose) (HPC)): 101 % of control | T/C (endpoint: mean survival time, dose: 10.0 mg/kg/injection, schedule: Q01DX009 (ip), vehicle: Klucel (hydroxypropylcellulose) (HPC)): 95 % of control and 102 % of control

Brc1ccc([I+]c2ccc(Br)cc2)cc1
T/C (endpoint: mean survival time, dose: 12.5 mg/kg/injection, schedule: Q04DX003 (ip), vehicle: saline with Tween-80): 105 % of control | T/C (endpoint: mean survival time, dose: 25.0 mg/kg/injection, schedule: Q04DX003 (ip), vehicle: saline with Tween-80): 95 % of control | T/C (endpoint: mean survival time, dose: 50.0 mg/kg/injection, schedule: Q04DX003 (ip), vehicle: saline with Tween-80): 101 % of control | T/C [6]: 94 % of control

c1ccc(-c2nc3ccccc3s2)nc1
T/C [4]: 96 % of control | T/C [5]: 103 % of control | T/C [6]: 96 % of control

CCC1(C#CCN2C(=O)c3ccccc3C2=O)C=CC2(CC1)OCCO2 (stereo unspecified)
T/C [1]: 101 % of control | T/C [2]: 93 % of control | T/C [3]: 91 % of control

C=C1C(=O)OC2CCCCCCC12 (stereo unspecified)
T/C (endpoint: mean survival time, dose: 50.0 mg/kg/injection, schedule: Q01DX009 (ip), vehicle: saline): 102 % of control | T/C (endpoint: mean survival time, dose: 100.0 mg/kg/injection, schedule: Q01DX009 (ip), vehicle: saline): 97 % of control | T/C (endpoint: mean survival time, dose: 200.0 mg/kg/injection, schedule: Q01DX009 (ip), vehicle: saline): 100 % of control

CN(C)C(=O)N(c1ccccc1)c1ccccc1
T/C (endpoint: mean survival time, dose: 100.0 mg/kg/injection, schedule: Q04DX002 (ip), vehicle: saline with Tween-80): 98 % of control | T/C (endpoint: mean survival time, dose: 200.0 mg/kg/injection, schedule: Q04DX002 (ip), vehicle: saline with Tween-80): 90 % of control

CC1CN(Br)C(=O)N(Br)C1=O (stereo unspecified)
T/C (endpoint: mean survival time, dose: 75.0 mg/kg/injection, schedule: Q01DX001 (ip), vehicle: saline): 102 % of control | T/C (endpoint: mean survival time, dose: 150.0 mg/kg/injection, schedule: Q01DX001 (ip), vehicle: saline): 100 % of control
